Like-named read-outs stand apart in the source and are kept apart here. Positions of bridges follow the written chain, without caps; N, C: chain ends. Non-standard residues stand in square brackets, D forms with d. Residues, ends and D or L forms follow the SMILES beside them. *: point of attachment. Me3N+(CH2)2O(CH2)2O(CH2)2CO = C[N+](C)(C)CCOCCOCCC(=O)*; CH2CH2OCH2CH2OCH2CH2NMe3+ = C[N+](C)(C)CCOCCOCC*; Trp(7-Me) = Cc1cccc2c(C[C@H](N)C(=O)O)c[nH]c12; 2Nal = N[C@@H](Cc1ccc2ccccc2c1)C(=O)O; 3Pal = N[C@@H](Cc1cccnc1)C(=O)O; Lys(Me) = CNCCCC[C@H](N)C(=O)O; Pen = CC(C)(S)[C@H](N)C(=O)O; Thp = NC1(C(=O)O)CCOCC1; X3 = C[N+](C)(C)CCCCC*; Sar = CNCC(=O)O

In data set [1] the target is T1, IL-23R (Homo sapiens, UniProt Q5VWK5).
T1 construct: host or cells: HEK293
T1 sequence (Q5VWK5 24-629): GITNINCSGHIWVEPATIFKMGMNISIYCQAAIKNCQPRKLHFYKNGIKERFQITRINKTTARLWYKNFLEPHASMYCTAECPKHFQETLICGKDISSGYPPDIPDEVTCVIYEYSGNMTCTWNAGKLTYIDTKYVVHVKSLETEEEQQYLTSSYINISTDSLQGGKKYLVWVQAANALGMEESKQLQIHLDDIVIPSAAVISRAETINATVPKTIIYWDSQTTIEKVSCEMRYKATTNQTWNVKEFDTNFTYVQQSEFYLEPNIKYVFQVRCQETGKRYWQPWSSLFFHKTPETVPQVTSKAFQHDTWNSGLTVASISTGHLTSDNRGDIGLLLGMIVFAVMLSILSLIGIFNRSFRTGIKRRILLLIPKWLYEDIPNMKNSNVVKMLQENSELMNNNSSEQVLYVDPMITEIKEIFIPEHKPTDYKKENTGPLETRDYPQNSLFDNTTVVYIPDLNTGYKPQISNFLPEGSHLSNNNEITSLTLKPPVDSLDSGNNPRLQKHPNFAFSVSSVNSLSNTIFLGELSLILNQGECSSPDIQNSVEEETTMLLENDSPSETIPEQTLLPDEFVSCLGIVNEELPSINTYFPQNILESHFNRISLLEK
The data set is described as follows: IL23R Reporter Assay. Particulars: HEK293 cells containing IL-23R, IL-12RP1 and STAT-inducible firefly luciferase reporter; 10 ng/mL IL-23 (EC90); 5 h at 37° C.; read-out: IL23R Reporter Assay. The class given is cell-based. A general note: A reporter such as luciferase makes a cellular process visible.

Data set [2] concerns the target T2, interleukin-23 (IL-23) receptor (Homo sapiens, UniProt Q5VWK5).
T2 construct: Cryopreserved peripheral blood mononuclear cells (PBMCs) from healthy donors were thawed; endogenous in cells; host or cells: cryopreserved PBMCs from healthy donors, expanded 4 days on anti-CD3 with IL-1
T2 sequence (Q5VWK5 24-629): T1 sequence (Q5VWK5 24-629)
The data set is described as follows: PBMC pSTAT3 assay. The class given is cell-based. As for the experimental part:
Cryopreserved peripheral blood mononuclear cells (PBMCs) from healthy donors were thawed and washed twice in ImmunoCult-XF T cell expansion medium (XF-TCEM) supplemented with CTL anti-aggregate wash. The cells were counted, resuspended at 2×10^5 cells per mL XF-TCEM supplemented with penicillin/streptomycin and 100 ng/mL IL-1 (BioLegend, 579404), and cultured in tissue culture flasks coated with anti-CD3 (eBioscience, 16-0037-85 or BD Pharmingen, 555329) at 37° C. in 5% CO2. On day 4 of culture, PBMCs were collected, washed twice in RPMI-1640 supplemented with 0.1% BSA (RPMI-BSA), and incubated in RPMI-BSA in upright tissue culture flasks for 4 hours at 37° C. in 5% CO2. Following this ‘starvation,’ a total of 6×10^4 cells in […] RPMI-BSA was transferred into each well of a 384-well plate pre-spotted with peptide or DMSO. The cells were incubated for 30 minutes prior to the addition of IL-23 at a final concentration of 5 ng/mL. The cells were stimulated with cytokine for 30 minutes at 37° C. in 5% CO2, transferred onto ice for 10 minutes, and lysed. Cell lysates were stored at −80° C. until phosphorylated STAT3 was measured using the phospho-STAT panel kit (Meso Scale Discovery, K15202D).

A short description of data set [3]: Exposed Polar Surface Area (EPSA). The class given is physicochemical. Particulars: SFC on Chirex 3014 column; sample 1 mM DMSO stock; read-out: EPSA. A digest of the protocol:
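Polarity measured by SFC on a Chirex 3014 column (35 °C, 4 mL/min) with methanol/ammonium formate in CO2 as gradient eluent. Retention times were normalised to EPSA (Å^2) against eight reference compounds.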

The conditions of data set [4]: disulfide bond, 20-membered ring.

On to `CC(=O)N(C)CCCC[C@@H]1NC(=O)[C@H](Cc2c[nH]c3c(C)cccc23)NC(=O)[C@H]([C@@H](C)O)NC(=O)[C@H](CC(=O)N(C)C)NC(=O)[C@@H](NC(=O)CCOCCOCC[N+](C)(C)C)C(C)(C)SSC(C)(C)[C@@H](C(=O)N[C@@H](Cc2ccc(OCCOCCOCC[N+](C)(C)C)cc2)C(=O)N[C@@H](Cc2ccc3ccccc3c2)C(=O)NC2(C(=O)N[C@@H](CCCCN(C)C(C)=O)C(=O)N[C@@H](CC(N)=O)C(=O)N[C@@H](Cc3cccnc3)C(=O)N(C)CC(=O)N(C)C)CCOCC2)NC1=O` [compound 181, cPEG3aCO-Pen(3)-N(N(Me)2)-T-7MeW-K(NMeAc)-Pen(3)-APEG3F-2Nal-THP-K(NMeAc)-N-3Pya-Sar-CON(Me)2] ({Me3N+(CH2)2O(CH2)2O(CH2)2CO}-[Pen]D(NMe2)T[Trp(7-Me)][Lys(Me)](Ac)[Pen]Y(CH2CH2OCH2CH2OCH2CH2NMe3+)[2Nal][Thp][Lys(Me)](Ac)N[3Pal][Sar]-NMe2; disulfide 1-6), for which the IC50 in data set [1] was 2 nM; in data set [2], 0.037 nM. In data set [3], the EPSA was found to be 136 A^2.
With `CC(=O)NCCCC[C@@H]1NC(=O)[C@H](Cc2c[nH]c3c(C)cccc23)NC(=O)[C@H]([C@@H](C)O)NC(=O)[C@H](CC(N)=O)NC(=O)[C@@H](NC(C)=O)C(C)(C)SSC(C)(C)[C@@H](C(=O)N[C@@H](Cc2ccc(OCCCCC[N+](C)(C)C)cc2)C(=O)N[C@@H](Cc2ccc3ccccc3c2)C(=O)NC2(C(=O)N[C@@H](CCCCNC(C)=O)C(=O)N[C@@H](CC(N)=O)C(=O)N[C@@H](Cc3cccnc3)C(=O)N(C)CC(N)=O)CCOCC2)NC1=O` [compound 281, MeCO-Pen(3)-N-T-7MeW-K(Ac)-Pen(3)-TMAPF-2Nal-THP-K(Ac)-N-3Pya-Sar-CONH2] (Ac-[Pen]NT[Trp(7-Me)]K(Ac)[Pen]Y(X3)[2Nal][Thp]K(Ac)N[3Pal][Sar]-NH2; disulfide 1-6 (inferred)), the figures for the IC50 in data set [1] and in data set [2] were 1.6 nM and 0.0075 nM, respectively. For the same molecule, in data set [3], the EPSA was found to be 158 A^2.
As for “CF3CO-Pen(3)-N(N(Me)2)-T-7MeW-K(NMeAc)-Pen(3)-AEF-2Nal-THP-K(NMeAc)-N-3Pya-Sar-CON(Me)2”, the ring closure, yield after HPLC in data set [4] (I2/MeOH, 20% MeCN/H2O, 0.56 mM) amounted to 12.1%.
On to “MeCO-k(Me)3-Pen(3)-N(N(Me)2)-T-7MeW-K(NMeAc)-Pen(3)-AEF(N(Me)2)-2Nal-THP-E-N-3Pya-Sar-CON(Me)2”, for which the ring closure, yield after HPLC in data set [4] (I2/AcOH, MeCN/H2O, […]) was 13.4%.
In the case of “cPEG5aCO-Pen(3)-N(N(Me)2)-T-7MeW-Dab(NMecPEG5a)-Pen(3)-AEF-2Nal-THP-E-N-3Pya-Sar-CON(Me)2”, in data set [4] (I2/AcOH, MeCN/H2O, 2.05 mM), the ring closure, yield after HPLC amounted to 10%.

Values taken from US20260022143A1, “Cyclic Peptide Inhibitors of IL-23” (JANSSEN PHARMACEUTICA NV, priority 2022, published 2026).
